From ChEMBL document CHEMBL1201862, “PubChem BioAssay data set” (2004)
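Briefly, cells in 96-well plates were exposed to five compound concentrations for 48 h, and endpoints were estimated by linear interpolation. Here, GI50 denotes the concentration required for 50% inhibition of growth.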 The source made the active and inactive calls. Rule as the data show it: active = GI50 up to about 1.1 µM and inactive = higher.

Tests used:
Assay in all cases: NCI tumour cell line growth inhibition, 48 h
A498 = tested on: A498
ACHN = tested on: ACHN
BT-549 = tested on: BT-549
CCRF-CEM = tested on: CCRF-CEM
COLO 205 = tested on: COLO 205
EKVX = tested on: EKVX
HCT-116 = tested on: HCT-116
HCT-15 = tested on: HCT-15
HOP-92 = tested on: HOP-92
Hs-578T = tested on: Hs-578T
K562 = tested on: K562
MCF7 = tested on: MCF7
MDA-N = tested on: MDA-N
OVCAR-5 = tested on: OVCAR-5
SF-268 = tested on: SF-268
SK-MEL-2 = tested on: SK-MEL-2
TK-10 = tested on: TK-10
U-251 = tested on: U-251
OVCAR-3 = tested on: OVCAR-3

| Structure (SMILES) | GI50 (A498) | GI50 (ACHN) | GI50 (BT-549) | GI50 (CCRF-CEM) | GI50 (COLO 205) | GI50 (EKVX) | GI50 (HCT-116) | GI50 (HCT-15) | GI50 (HOP-92) | GI50 (Hs-578T) | GI50 (K562) | GI50 (MCF7) | GI50 (MDA-N) | GI50 (OVCAR-5) | GI50 (SF-268) | GI50 (SK-MEL-2) | GI50 (TK-10) | GI50 (U-251) | GI50 (OVCAR-3) |
| --- | --- | --- | --- | --- | --- | --- | --- | --- | --- | --- | --- | --- | --- | --- | --- | --- | --- | --- | --- |
| CCN(CC)CCn1nc(N)c2nc3cc(Cl)ccc3nc21 | > 100 µM (inactive) | 37.5 µM (inactive) | > 100 µM (inactive) | > 10 µM (inactive) | 35.7 µM (inactive) | 80 µM (inactive) | 48.4 µM (inactive) | > 100 µM | > 100 µM (inactive) | > 100 µM (inactive) | 40.7 µM (inactive) | 36.1 µM (inactive) | 86.5 µM (inactive) | 89.1 µM (inactive) | 75.5 µM (inactive) | 64.3 µM (inactive) | > 100 µM (inactive) | > 100 µM (inactive) | – |
| COc1ccc(CC2OC3(CCCCC3)CC3CCCCN32)cc1 (stereo not drawn) | – | > 100 µM (inactive) | > 100 µM (inactive) | 47 µM (inactive) | > 100 µM (inactive) | > 100 µM (inactive) | 43.8 µM (inactive) | > 100 µM | 98.9 µM (inactive) | 36.7 µM (inactive) | 27.1 µM (inactive) | 72.9 µM (inactive) | 52.6 µM (inactive) | > 100 µM (inactive) | > 100 µM (inactive) | > 100 µM (inactive) | > 100 µM (inactive) | > 100 µM (inactive) | 46 µM (inactive) |
| Cc1ccc(-c2cn3c(nc4ccccc43)c(/C=C/c3ccco3)n2)cc1 | > 100 µM (inactive) | > 100 µM (inactive) | > 100 µM (inactive) | – | 61.7 µM (inactive) | – | > 100 µM (inactive) | > 100 µM | > 100 µM (inactive) | 31.9 µM (inactive) | 37.7 µM (inactive) | 29.6 µM (inactive) | 42.1 µM (inactive) | > 100 µM (inactive) | 59.7 µM (inactive) | 22.1 µM (inactive) | > 100 µM (inactive) | 60.5 µM (inactive) | 49.8 µM (inactive) |
| COC(=O)/C=C\C(C#N)(C#N)/N=C/c1cccc(OC)c1 | 18.6 µM (inactive) | 2.61 µM (inactive) | 7.74 µM (inactive) | 1.72 µM (inactive) | 2.15 µM (inactive) | 11.6 µM (inactive) | 3.44 µM (inactive) | 1.93 µM | 2.3 µM (inactive) | 18.1 µM (inactive) | 11.1 µM (inactive) | 4.94 µM (inactive) | 7.03 µM (inactive) | 8.49 µM (inactive) | 17.2 µM (inactive) | 17.1 µM (inactive) | 1.91 µM (inactive) | 15.9 µM (inactive) | 11.5 µM (inactive) |
| CCOP(=O)(OCC)c1ccc(=O)[nH]c1-c1cccs1 | > 100 µM (inactive) | > 100 µM (inactive) | > 100 µM (inactive) | – | > 100 µM (inactive) | > 100 µM (inactive) | > 100 µM (inactive) | > 100 µM | > 100 µM (inactive) | > 100 µM (inactive) | > 100 µM (inactive) | > 100 µM (inactive) | > 100 µM (inactive) | > 100 µM (inactive) | > 100 µM (inactive) | > 100 µM (inactive) | > 100 µM (inactive) | > 100 µM (inactive) | > 100 µM (inactive) |
| NCCCc1ccc2oc3ccccc3c2c1 | 16.1 µM (inactive) | 17.5 µM (inactive) | 19.9 µM (inactive) | 11.6 µM (inactive) | 17.5 µM (inactive) | – | 15.3 µM (inactive) | 17.6 µM | 20.4 µM (inactive) | 21.3 µM (inactive) | 24.2 µM (inactive) | 18.7 µM (inactive) | 15.6 µM (inactive) | 12.7 µM (inactive) | 19.5 µM (inactive) | 20.4 µM (inactive) | 16.7 µM (inactive) | 18.7 µM (inactive) | 17.2 µM (inactive) |
| COc1cc(C2SC(=N)Nc3c2c(C)nn3C(=O)c2ccc(Cl)cc2)ccc1O (stereo not drawn) | – | > 10 µM (inactive) | > 10 µM (inactive) | > 10 µM (inactive) | > 10 µM (inactive) | > 10 µM (inactive) | > 10 µM (inactive) | > 10 µM | > 10 µM (inactive) | > 10 µM (inactive) | > 10 µM (inactive) | > 10 µM (inactive) | 0.236 µM (active) | > 10 µM (inactive) | > 10 µM (inactive) | > 10 µM (inactive) | > 10 µM (inactive) | > 10 µM (inactive) | > 10 µM (inactive) |
| CC(=O)Oc1ccc2cc(Oc3ccccc3)c(=O)oc2c1 | 67 µM (inactive) | > 100 µM (inactive) | 39.9 µM (inactive) | – | – | > 100 µM (inactive) | > 100 µM (inactive) | 53.3 µM | 62.7 µM (inactive) | > 100 µM (inactive) | – | > 100 µM (inactive) | > 100 µM (inactive) | > 100 µM (inactive) | > 100 µM (inactive) | – | 64.6 µM (inactive) | 69.7 µM (inactive) | 46 µM (inactive) |
| COc1c(-c2ccc(O)c(O)c2)oc2c(O)c(O)cc(O)c2c1=O | > 100 µM (inactive) | > 100 µM (inactive) | > 100 µM (inactive) | 29.2 µM (inactive) | > 100 µM (inactive) | > 100 µM (inactive) | 40.4 µM (inactive) | 85.5 µM | > 100 µM (inactive) | 49.5 µM (inactive) | 20.8 µM (inactive) | 28.2 µM (inactive) | 61.5 µM (inactive) | > 100 µM (inactive) | – | > 100 µM (inactive) | > 100 µM (inactive) | 34.8 µM (inactive) | 56.8 µM (inactive) |
| CN(CCNC(=O)c1n[nH]c2c1Cc1ccccc1-2)CCNC(=O)c1n[nH]c2c1Cc1ccccc1-2 | 18.6 µM (inactive) | 17.1 µM (inactive) | 16.8 µM (inactive) | 18.1 µM (inactive) | 17.3 µM (inactive) | 20.6 µM (inactive) | 16.2 µM (inactive) | 18.4 µM | 17.3 µM (inactive) | 25.3 µM (inactive) | 18 µM (inactive) | 19.3 µM (inactive) | 16.5 µM (inactive) | 18.6 µM (inactive) | 19.5 µM (inactive) | – | 19.1 µM (inactive) | 19.3 µM (inactive) | 14.9 µM (inactive) |
| O=C(O)CCC(NC(=O)c1ccc(Nc2nc3ccccc3nc2C(=O)O)cc1)C(=O)O (stereo not drawn) | – | > 100 µM (inactive) | > 100 µM (inactive) | > 100 µM (inactive) | > 100 µM (inactive) | > 100 µM (inactive) | > 100 µM (inactive) | – | > 100 µM (inactive) | > 100 µM (inactive) | > 100 µM (inactive) | > 100 µM (inactive) | > 100 µM (inactive) | > 100 µM (inactive) | > 100 µM (inactive) | > 100 µM (inactive) | > 100 µM (inactive) | > 100 µM (inactive) | > 100 µM (inactive) |
| Cc1ccc(S(=O)(=O)NC(=N)N(C)N=O)cc1 | 71.4 µM (inactive) | – | > 100 µM (inactive) | > 100 µM (inactive) | 28.1 µM (inactive) | 85.9 µM (inactive) | > 100 µM (inactive) | > 100 µM | 84.1 µM (inactive) | > 100 µM (inactive) | > 100 µM (inactive) | > 100 µM (inactive) | > 100 µM (inactive) | > 100 µM (inactive) | > 100 µM (inactive) | > 100 µM (inactive) | > 100 µM (inactive) | > 100 µM (inactive) | > 100 µM (inactive) |
| COc1cccc(/N=N/C(=N\NC(=O)c2ccc(C)cc2)c2ccc(N(CCC#N)CCC#N)cc2C)c1 | 44.3 µM (inactive) | > 100 µM (inactive) | 71 µM (inactive) | – | > 100 µM (inactive) | 66.5 µM (inactive) | 68.1 µM (inactive) | > 100 µM | > 100 µM (inactive) | 54.1 µM (inactive) | > 100 µM (inactive) | 32.1 µM (inactive) | > 100 µM (inactive) | > 100 µM (inactive) | > 100 µM (inactive) | > 100 µM (inactive) | > 100 µM (inactive) | > 100 µM (inactive) | 37.6 µM (inactive) |
| C=C1CC(C)(c2cccc(Nc3nc4ccccc4c4occc34)c2)OC1=O (stereo not drawn) | 17.7 µM (inactive) | 4.8 µM (inactive) | 4.85 µM (inactive) | 2.07 µM (inactive) | 4.38 µM (inactive) | 14.7 µM (inactive) | 1.67 µM (inactive) | 3.52 µM | 1.44 µM (inactive) | 3.25 µM (inactive) | – | 3.71 µM (inactive) | 5.21 µM (inactive) | 14.3 µM (inactive) | 10.5 µM (inactive) | – | 3.56 µM (inactive) | 10 µM (inactive) | 4.8 µM (inactive) |
| CC1=NN=C(N)N/C1=C\C(Sc1ccc(Cl)cc1)c1ccc(Cl)cc1Cl (stereo not drawn) | 19.2 µM (inactive) | 14.2 µM (inactive) | 20 µM (inactive) | 2.33 µM (inactive) | 18.9 µM (inactive) | 13.2 µM (inactive) | 8.02 µM (inactive) | 10.9 µM | 9.71 µM (inactive) | 17.5 µM (inactive) | 1.28 µM (inactive) | 3.78 µM (inactive) | 19.7 µM (inactive) | 15.9 µM (inactive) | 12.6 µM (inactive) | 16.4 µM (inactive) | 17.5 µM (inactive) | 14.2 µM (inactive) | – |
| C[C@@]12C[C@@H](c3ccccc3O1)N1CCSC1=N2 | > 100 µM (inactive) | > 100 µM (inactive) | > 100 µM (inactive) | – | > 100 µM (inactive) | > 100 µM (inactive) | > 100 µM (inactive) | > 100 µM | > 100 µM (inactive) | > 100 µM (inactive) | > 100 µM (inactive) | > 100 µM (inactive) | > 100 µM (inactive) | > 100 µM (inactive) | > 100 µM (inactive) | > 100 µM (inactive) | > 100 µM (inactive) | > 100 µM (inactive) | > 100 µM (inactive) |
